The results in this text go back to patent US20230406883A1, “COMPOUNDS AND THEIR USE IN TREATMENT OF TACHYKININ RECEPTOR MEDIATED DISORDERS” (Embark Biotech ApS, priority 2020, published 2023).

Where “and” joins values, the source holds several entries; their conditions need not be identical. Equal values may be shown once. Read-outs that look alike come from different tables or passages of the source. Numbered stars: 1 amine (or outer) side, 2 acyl side, 3 side chain; on linkers, the order of the positions; unused ones are H or OH. Square brackets hold non-standard residues; d marks the D form. Peptide text beside a SMILES is read from it. * marks the point of attachment. C18 diacid = O=C(O)CCCCCCCCCCCCCCCCC(=O)*; γGlu = O=C(O)[C@H](CCC(=O)[*:2])N[*:1]; NMeL = CN[C@@H](CC(C)C)C(=O)O; hSer = N[C@@H](CCO)C(=O)O; Nle = CCCC[C@H](N)C(=O)O; AEEA = NCCOCCOCC(=O)O

Data set [1] deals with T1, hNK1R (Homo sapiens, UniProt P25103).
T1 construct: host or cells: COS-7
The data set can be described thus: IP3 assay (inositol trisphosphate, 3H-myoinositol) in transiently transfected COS-7 cells. The data set is classed as cell-based. Conditions: for EC50: 0.2% ovalbumin buffer. The method in brief: (§1)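 COS-7 cells were transiently transfected with receptor plasmid and labelled with ³H-myo-inositol. Cells were lysed in formic acid, and ³H-inositol phosphates were captured on SPA YSI beads and counted.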

Data set [2] addresses T2, hNK3R (Homo sapiens, UniProt P29371).
T2 construct: host or cells: COS-7
T2 sequence (P29371 1-465): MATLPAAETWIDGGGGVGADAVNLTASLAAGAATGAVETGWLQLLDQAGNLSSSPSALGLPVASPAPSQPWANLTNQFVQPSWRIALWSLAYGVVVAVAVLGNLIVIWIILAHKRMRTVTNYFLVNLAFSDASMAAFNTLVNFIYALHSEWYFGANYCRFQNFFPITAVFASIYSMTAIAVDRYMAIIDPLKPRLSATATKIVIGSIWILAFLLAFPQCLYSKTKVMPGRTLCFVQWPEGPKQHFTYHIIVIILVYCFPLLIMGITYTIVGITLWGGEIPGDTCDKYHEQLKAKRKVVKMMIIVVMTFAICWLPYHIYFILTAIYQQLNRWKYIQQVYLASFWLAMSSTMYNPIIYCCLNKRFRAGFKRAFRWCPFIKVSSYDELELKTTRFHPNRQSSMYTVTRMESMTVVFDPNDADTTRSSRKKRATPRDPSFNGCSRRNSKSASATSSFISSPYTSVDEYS
The description is as above. The data set is classed as cell-based. Particulars: for EC50: 0.2% ovalbumin buffer, read-out: hNK3, IP3 EC50. The procedure, abridged:
as §1

Data set [3] deals with T3, hNK2R (Homo sapiens, UniProt P21452).
T3 construct: host or cells: COS-7
T3 sequence (P21452 1-398): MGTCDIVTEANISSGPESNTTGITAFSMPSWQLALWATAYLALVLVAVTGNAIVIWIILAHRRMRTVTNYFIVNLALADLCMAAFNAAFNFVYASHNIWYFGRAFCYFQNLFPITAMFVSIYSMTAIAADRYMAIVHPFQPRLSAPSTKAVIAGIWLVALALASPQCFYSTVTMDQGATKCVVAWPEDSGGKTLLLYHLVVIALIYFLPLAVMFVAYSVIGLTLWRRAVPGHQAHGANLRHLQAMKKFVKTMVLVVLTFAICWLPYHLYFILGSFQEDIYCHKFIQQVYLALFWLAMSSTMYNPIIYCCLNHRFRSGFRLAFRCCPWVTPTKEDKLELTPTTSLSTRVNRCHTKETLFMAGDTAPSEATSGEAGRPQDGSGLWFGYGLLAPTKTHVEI
The data set is described as above. The data set is classed as cell-based. Conditions: COS-7 cells; for EC50: 0.2% ovalbumin buffer; for hNK2R, IP3 Efficacy: figure legends: percent of 10^-6 M NKA. The procedure, abridged: as §1

The nature of data set [4]: in vivo. Details: species or system mice. Conditions: mouse; for half-life: sc, 0.5 mg/kg. The method, then:
Pharmacokinetics: To evaluate the in vivo half-life of individual peptide analogues we used wild type lean mice at around 10 weeks of age injected once with a peptide analogue. For each sample time point 3-4 mice were used and blood was drawn from the submandibular vein at indicated time points following injection. Prior to injection mice were given ad libitum access to standard chow diet. Mice were subcutaneously injected with 0.5 mg/kg peptide analogue in a volume of 2 ml/kg. The amount of peptide analogue and metabolite(s) present in blood samples were measured by TF-LC-MS and MetID-LC-MS, respectively. Sample preparation: One volume of plasma is precipitated with three volumes of ethanol (with internal standard). The mixture is centrifuged at 13000 g for 20 min. One volume of supernatant is diluted with two volumes of Milli-Q water (1% formic acid). Calibration curve: peptide analogue was spiked into blank mouse plasma. Range: 0.5 to 2000 nM (linear 1/x2).

Where [5] appears, read: COS-7 cells, figure legends: percent of 10^-6 M NKA.

T1 sequence (P25103 whole entry): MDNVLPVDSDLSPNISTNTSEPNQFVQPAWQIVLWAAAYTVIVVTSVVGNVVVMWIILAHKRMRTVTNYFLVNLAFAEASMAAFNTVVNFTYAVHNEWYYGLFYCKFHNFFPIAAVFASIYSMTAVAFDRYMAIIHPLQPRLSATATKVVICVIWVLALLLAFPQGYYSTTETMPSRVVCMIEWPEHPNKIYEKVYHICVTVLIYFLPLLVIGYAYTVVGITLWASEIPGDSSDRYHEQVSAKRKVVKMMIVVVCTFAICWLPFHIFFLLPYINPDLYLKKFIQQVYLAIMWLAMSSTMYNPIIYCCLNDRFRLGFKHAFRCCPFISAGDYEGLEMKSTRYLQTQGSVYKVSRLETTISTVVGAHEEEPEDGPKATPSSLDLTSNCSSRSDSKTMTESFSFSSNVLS

Take `CCCC[C@H](NC(=O)[C@H](CC(C)C)N(C)C(=O)CNC(=O)[C@@H](NC(=O)[C@H](Cc1ccccc1)NC(=O)[C@H](CCCCN)NC(=O)[C@H](CC(=O)O)NC(=O)COCCOCCNC(=O)COCCOCCNC(=O)CC[C@H](NC(=O)CCCCCCCCCCCCCCCCC(=O)O)C(=O)O)C(C)C)C(N)=O` [compound 304, *Asp;Lys;Phe;Val;Gly;NmLeu;Nle;NH2]: the concentration for a half-maximal effect (EC50) was 34 nM and 40 nM and 12 to 250 nM in data set [1] (COS-7 cells); 66 nM and 65 nM and 60 to 7000 nM in data set [2] (COS-7 cells); 2.1 nM and 1 to 11 nM in data set [3]. Also, in data set [1] (setting [5]), the “hNK1R, IP3 Efficacy” value was 80% and 80-85%. The “hNK3, IP3 Efficacy” value in data set [2] was 100%; in data set [2] (setting [5]), 65% and 60% and 85-100%. Moreover, the “hNK2R, IP3 Efficacy” value in data set [3] is 90% and 100% and 80-90%. The compound also registered a half-life in data set [4] (Half-life) not below 10 h.
On to `COCC[C@H](NC(=O)[C@H](CC(C)C)N(C)C(=O)CNC(=O)[C@@H](NC(=O)[C@H](Cc1ccc(O)cc1)NC(=O)[C@H](CCCCN)NC(=O)[C@H](CC(=O)O)NC(=O)COCCOCCNC(=O)COCCOCCNC(=O)CC[C@H](NC(=O)CCCCCCCCCCCCCCCCC(=O)O)C(=O)O)C(C)C)C(N)=O` [compound 344, *Asp;Lys;Tyr;Val;Gly;NmLeu;Metox;NH2] ({C18 diacid-γGlu-AEEA-AEEA}-DKYVG[NMeL][hSer](Me)-NH2), for which the half-maximal effective concentration (EC50) in data set [1] (COS-7 cells) was approximately 160 nM; in data set [3], 2.2 nM and 3.1 nM and 5 nM and 3.2 nM. The “hNK1R, IP3 Efficacy” value in data set [1] (setting [5]) is 30% and 50% and ~30%. The “hNK2R, IP3 Efficacy” value in data set [3] is 90% and 100% and 110%. Further, the half-life was 10.3 h in data set [4] and not below 10 h in data set [4] (Half-life).
In the case of `COCC[C@H](NC(=O)[C@H](CC(C)C)N(C)C(=O)CNC(=O)[C@@H](NC(=O)[C@H](Cc1ccccc1)NC(=O)[C@H](CCCCN)NC(=O)[C@H](CC(=O)O)NC(=O)COCCOCCNC(=O)COCCOCCNC(=O)CC[C@H](NC(=O)CCCCCCCCCCCCCCCCC(=O)O)C(=O)O)[C@@H](C)O)C(N)=O` [compound 383, *Asp;Lys;Phe;Thr;Gly;NmLeu;Metox;NH2] ({C18 diacid-γGlu-AEEA-AEEA}-DKFTG[NMeL][hSer](Me)-NH2), the 50% effective concentration (EC50) was 290 nM in data set [1] (COS-7 cells), 313 nM in data set [2] (COS-7 cells) and 1.6 nM in data set [3]. The “hNK1R, IP3 Efficacy” value in data set [1] (setting [5]) was 50%. In data set [2] (setting [5]), the “hNK3, IP3 Efficacy” value came to 60%. In addition, the “hNK2R, IP3 Efficacy” value in data set [3] amounted to 95%. The half-life in data set [4] (Half-life) is not below 10 h.
With `CCCC[C@H](NC(=O)[C@H](CC(C)C)N(C)C(=O)CNC(=O)[C@@H](NC(=O)[C@H](Cc1ccc(O)cc1)NC(=O)[C@H](CCCCN)NC(=O)[C@H](CC(=O)O)NC(=O)COCCOCCNC(=O)COCCOCCNC(=O)CC[C@H](NC(=O)CCCCCCCCCCCCCCCCC(=O)O)C(=O)O)C(C)C)C(N)=O` [compound 305, *Asp;Lys;Tyr;Val;Gly;NmLeu;Nle;NH2] ({C18 diacid-γGlu-AEEA-AEEA}-DKYVG[NMeL][Nle]-NH2), the “hNK1R, IP3 Efficacy” value in data set [1] is 17-50%; in data set [1] (setting [5]), 30% and ~30%. Also, the EC50 in data set [1] (COS-7 cells) is 520 nM and 450 to 3500 nM; in data set [2] (COS-7 cells), ~730 nM and ~720 nM; in data set [3], 3.7 nM and 4 nM and 2.2 to 13 nM. Moreover, the “Plasma exposure [2 h]” value in data set [4] is 5.364 µM. Besides, the “Plasma exposure [26 h]” value in data set [4] stood at 183 nM. The area under the curve (AUC) in data set [4] (330 nmol/kg) came to 28.8 µM·h. In addition, the peak concentration (Cmax) in data set [4] (330 nmol/kg) is 3.45 µM. This compound gave a half-life in data set [4] (Half-life) of 5.5 h.

The EC50 is the concentration that produces a half-maximal response. A word on the half-life: it is the time needed for the level to fall by half in the phase considered. High values mean slow decline, low ones rapid decline. The AUC is the area under the concentration-time curve, a measure of exposure. Low readings indicate less exposure, high ones more exposure. The term Cmax denotes the highest concentration seen after dosing.
